Source: patent publication US8618357B2, “Sweetpotato SRD1 cDNA and transgenic plants with high-numbered storage roots using the same” (Korea University Research and Business Foundation, priority 2010, dated 2013)

Test system: SRD1 transcript
Test: Transcriptional regulation of SRD1 in response to exogenous IAA in fibrous roots of single-leaf plantlets (real-time RT-PCR)
Assay type: in vivo, sweetpotato
Details: for transcript level of SRD1: fibrous roots, 25° C. in the dark, FIG. 7A; for transcript level of SRD1 (time course): FIG. 7B
Method: To determine the transcriptional regulation of SRD1, SRD1-specific primers [5′-[…]-3′(SEQ ID NO.: 10) and 5′-GTGCACGAAACTCCCCTT-3′(SEQ ID NO.: 11)] were designed to contain nucleotide 180 (the nucleotide showing an SNP between SRD1 and IbMADS1) and the 3 bp deletion region in SRD1 at the 3′ end of the forward primer and at the 3′ end of the reverse primer, respectively (FIG. 1).
The roots of sweetpotato were treated with IAA according to the following method. Sweetpotato plantlets bearing a single leaf and petiole (single-leaf plantlets) were collected from sweetpotato plants and incubated in flasks containing distilled water for 3 weeks. After fibrous roots had developed from the distal end of the petiole, the single-leaf plantlets were incubated in various concentrations of IAA (0, 50, 500, 1000, 2000 μM) at 25° C. in the dark for various time periods (0-24 h). After the hormone treatment, total RNA was extracted from the fibrous roots using the RNeasy Plant Mini Kit™ (Qiagen) and used for real-time and semi-quantitative reverse transcription-PCR (RT-PCR).
Total RNA (5 μg) was used for first-strand cDNA synthesis using the SuperScript III first-strand cDNA synthesis kit (Invitrogen). The resulting cDNA solution was then diluted with 30 μl of TE (10 mM TRIS-HCl, pH 8.0, 1 mM EDTA). The primers for real-time RT-PCR were as follows: SRD1 (5′-[…]-3′; SEQ ID NO.: 10), 5′-GTGCACGAAACTCCCCTT-3′; SEQ ID NO. 11). Real-time PCR analysis was performed using the LightCycler 480 quantification system (Roche Diagnostics) according to the manufacturer's instructions. Expression levels were normalized with β-tubulin expression amplified with 5′-[…]-3′ (SEQ ID NO.: 12) and 5′-[…]-3′ (SEQ ID NO.: 13) primers. PCR were performed starting with pre-denaturation at 95° C. for 10 min before 45 cycles of denaturation at 95° C. for 10 sec, annealing at 58° C. for 10 sec and extension at 72° C. for 20 sec. Following the amplification phase, a melting curve analysis was conducted from 65° C. to 97° C. The second derivative maximum method in the LightCycler 480 quantification software (Roche Diagnostics) was used to evaluate the data.

SMILES: O=C(O)Cc1c[nH]c2ccccc12 [IAA, Indole-3-acetic acid]
- transcript level of SRD1 (50 μM IAA): decreased
- transcript level of SRD1 (time course) (500 μM IAA, 0.5 h after treatment): decreased compared with the control
- transcript level of SRD1 (time course) (500 μM IAA, 1 h after treatment): decreased compared with the control
- transcript level of SRD1 (time course) (500 μM IAA, 3 h after treatment): decreased compared with the control
- transcript level of SRD1 (time course) (500 μM IAA, 6 h after treatment): increased sharply
- transcript level of SRD1 (time course) (500 μM IAA, 12 h after treatment): decreased compared with the control
- transcript level of SRD1 (time course) (500 μM IAA, 24 h after treatment): decreased compared with the control
- transcript level of SRD1 (500 μM IAA): decreased
- transcript level of SRD1 (1000 μM IAA): increased sharply
- transcript level of SRD1 (2000 μM IAA): decreased to almost the same level as that observed at 0 μM IAA
